Assay results from PMC3289605, “A Novel G Protein-Coupled Receptor of Schistosoma mansoni (SmGPR-3) Is Activated by Dopamine and Is Widely Expressed in the Nervous System” (PLoS Neglected Tropical Diseases, 2012).
Read-outs that look alike come from different tables or passages of the source.

Assays:
[1] = biological target: T1, SmGPR-3 (Schistosoma mansoni, UniProt C4Q8W8); assay: cell-based; details: for inhibition of SmGPR-3 activity: highest concentration tested, in the presence of 100 µM DA
T1 sequence (C4Q8W8 1-497): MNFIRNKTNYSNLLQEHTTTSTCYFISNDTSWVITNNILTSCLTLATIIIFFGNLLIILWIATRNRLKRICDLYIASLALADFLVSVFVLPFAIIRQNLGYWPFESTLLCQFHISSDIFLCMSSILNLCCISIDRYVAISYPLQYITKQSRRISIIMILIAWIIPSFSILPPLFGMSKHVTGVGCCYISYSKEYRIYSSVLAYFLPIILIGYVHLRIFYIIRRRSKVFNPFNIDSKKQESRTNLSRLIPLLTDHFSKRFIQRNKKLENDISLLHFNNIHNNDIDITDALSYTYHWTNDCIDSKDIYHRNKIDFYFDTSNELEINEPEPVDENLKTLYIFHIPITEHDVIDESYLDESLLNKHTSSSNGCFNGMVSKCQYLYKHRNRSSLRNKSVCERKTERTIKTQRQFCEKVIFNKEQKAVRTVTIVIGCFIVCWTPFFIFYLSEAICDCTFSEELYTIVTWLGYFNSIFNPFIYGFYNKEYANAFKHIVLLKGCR
Text: (§1) The SmGPR-3 coding sequence was sub-cloned between the NcoI/XbaI restriction sites of the yeast expression vector Cp4258 (kindly provided by Dr J. Broach, Princeton University, NJ, USA). The functional expression assay was adapted from the protocol of Wang and colleagues as described, [30]. The receptor was expressed in Saccharomyces cerevisiae strain YEX108 (MATα PFUS1-HIS3 PGPA1-Gαq(41)-GPA1-Gaq(5) can1 far1Δ 1442 his3 leu2 lys2 sst2Δ2 ste14::trp1::LYS2 ste18Δ6-3841 ste3Δ1156 tbt1-1 trp1 ura3; kindly provided by J. Broach, Princeton University, NJ, USA). This strain expresses the HIS3 reporter gene under the control of the FUS1 promoter and contains an integrated copy of a chimeric Gα gene in which the first […] and last five codons of native yeast Gα (GPA1) were replaced with those of human Gαq. […] YPD culture medium (1% yeast extract, 2% peptone and 2% dextrose) was used to culture YEX108 strain, according to standard conditions. The lithium acetate method was performed to transform yeast with either empty Cp4258 vector (mock) or Cp4258/SmGPR-3 expression plasmid, using 200 µl mid-log phase cells, 200 µg carrier single stranded DNA (Invitrogen) and 1 µg plasmid. Positive transformants were selected on synthetic complete (SC) 2% glucose solid medium lacking leucine (SC/leu^−). For agonist assays, single colonies of transformants were cultured overnight in SC/leu^− liquid medium at 250 rpm/30°C. The next day, cells were washed four times in SC 2% glucose liquid medium that lacked both leucine and histidine (SC/leu^−/his^−). Cells were finally resuspended in SC/leu^−/his^− medium supplemented with 50 mM 3-(N-morpholino) propanesulfonic acid (MOPS), pH 6.8 and 1.5 mM 3-Amino-1, 2, 4-Triazole (3-AT). The latter was used to reduce basal growth due to endogenous background signalling as it inhibits the gene product of HIS3 [29]. Aliquots containing approximately 3,000 cells were added to individual wells of a 96-well plate containing test agonist or vehicle plus additional medium for a total reaction volume of 100 µl. The plates were incubated at 30°C for 22–26 h, after which 10 µl of Alamar blue (Invitrogen) was added to each well. The plates were returned to the 30°C incubator until the Alamar blue color started to shift to pink (approximately 1–4 h) and fluorescence (560 nm excitation/590 nm emission) was measured at 30°C every hour up to three hours, using a plate fluorometer (FlexStation II, Molecular Devices, US). Antagonist assays were done in a similar way, except that each well contained 10^−4 M agonist (dopamine) and the antagonist at the specified concentration. Data analyses and dose-response curve fits were performed using Prism v5.0 (GraphPad software Inc.).
(§2) Next we examined the effects of classical (mammalian) dopaminergic and other BA antagonists on the activity of SmGPR-3. Drugs were tested initially at a single concentration of 100 µM (10 µM in the case of flupenthixol) in the presence of 100 µM DA (Fig. 4A). […] Those drugs that produced significant inhibition (>50%) in the initial screen were subsequently tested at different concentrations to obtain dose response curves (Fig. 4B–F). […] To test this possibility, we repeated the assay in medium supplemented with histidine (100 µM), which enables cell growth irrespective of receptor activation.
Figure 4 Antagonist effects on SmGPR-3 activity. (A) Yeast YEX108 auxotrophic his strain expressing SmGPR-3 was incubated with agonist (DA, 100 µM) and test antagonist or vehicle. Antagonists were tested at 100 µM except for flupenthixol, which was used at 10 µM.

[2] = system: S. mansoni schistosomula; assay: Motor activity of schistosomula in culture (frequency of body length changes); type: cell-based, Schistosoma mansoni; details: for concentration at which significant inhibition of motility was observed: range tested 10^−7 M–10^−4 M
Description: 3-day old in vitro transformed schistosomula were placed in individual wells of a 24-well plate (30–40 animals/well) in 300 µl of OPTI-MEM+10% dialyzed serum. Following an adaptation period of 15 min at room temperature, test substances were added at a final concentration of 100 µM or as indicated. Animals were monitored 5 min after drug addition by placing the 24-well plate on a compound microscope (Nikon, SMZ1500) equipped with a digital video camera (QICAM Fast 1394, mono 12 bit, Qimaging) and SimplePCI version 5.2 (Compix Inc.) for image acquisition. Images were obtained at a rate of ≈3 frames/s for a period of 1 minute and the data were analyzed with ImageJ software (version 1.41, NIH, USA). Cultured schistosomula display complex motor behaviours that are dominated by repeated changes in length, both shortening and elongation. To quantify this type of movement, we used the “Fit-Ellipse” command of ImageJ to draw best-fit ellipses of individual animals in each recorded frame. An estimate of body length was obtained by measuring the principal (“major”) axis of each ellipse, using calibrated units (µm), and the frequency of length changes during the observation period was calculated. Any change representing >10% of body length, whether an increase or decrease, was included in the calculation; changes ≤10% were disregarded. Between 12–15 animals were monitored per well and the experiment was repeated a minimum of 3 times. To monitor for possible drug induced toxicity, viability tests were performed routinely using the methylene blue dye exclusion assay described by Gold.
To explore this possibility we tested the effects of several SmGPR-3 agonists and antagonists on the motor activity of intact schistosomula in culture. […] We used a larval stage (schistosomula) instead of adult worms because the larvae are better suited for quantitative measurements of movement. […] To quantitate motor activity, we monitored individual schistosomula in the presence and absence of test substances, using a microscope equipped with a video camera and imaging software. Approximately 180 consecutive frames were recorded for each animal over 1 min of observation and the approximate length of the animal in each frame was measured in calibrated units (µm). […] To quantify the level of motor activity, we repeated experiments at different concentrations of each amine and then calculated the frequency of length changes, both decrease and increase for each individual animal during the 1 min of observation. Mean values were obtained from the average of 12–15 animals/experiment and each experiment was repeated a minimum of 3 times.
Figure 7 Effects of dopamine and related substances on schistosome motility. (A) In vitro transformed 3-day-old schistosomula were incubated with test drug, dopamine (DA) or epinine (EPN), each at (10^−4 M) or vehicle (CT, control). Animals were treated for 5 min at room temperature, after which they were examined with a compound microscope equipped with a digital video camera and SimplePCI (Compix Inc.) for image acquisition. Images were recorded for 1 minute (∼3 frames/second) and an estimate of body length in µm was obtained for each animal in every frame. Each tracing shown is of an individual animal and is representative of 12–15 larvae per experiment and 3–4 independent experiments per treatment.

[3] = system: Saccharomyces cerevisiae strain YEX108; assay: Drug-induced toxicity control: yeast growth in histidine-supplemented medium; type: cell-based; details: medium supplemented with histidine (100 µM); drug-treated cells
Description: as §2
Figure 4 Antagonist effects on SmGPR-3 activity. (A) Yeast YEX108 auxotrophic his strain expressing SmGPR-3 was incubated with agonist (DA, 100 µM) and test antagonist or vehicle. Antagonists were tested at 100 µM except for flupenthixol, which was used at 10 µM. The data were normalized relative to the control sample that contained 100 µM DA but no antagonist. To test for drug induced toxicity, assays were repeated in the presence of 100 µM test antagonist in histidine-supplemented (his+) medium, which enables the cell to grow irrespective of receptor activation (His +ve control; see text for details). Abbreviations are as follows: SPIP, spiperone; PROP, propanolol; CLZP, clozapine; BUSP, buspirone; MINS, mianserin; CPRH, cyproheptadine; FLPX, flupenthixol; PRMZ, promethazine; HLRD, haloperidol. […] The error bars are the means ± SEM for 3–4 experiments and at least 2 clones (in triplicates).

[4] = system: SmGPR-2; design: method as in PMID 20430030; details: cited from earlier work
[5] = biological target: T1, SmGPR-3; assay: cell-based
Text: as §1
Functional expression assays were performed in yeast. […] The full-length SmGPR-3 cDNA was ligated to the Cp4258 vector and the recombinant plasmid was transformed into Saccharomyces cerevisae to test for receptor activity. We used a genetically modified S. cerevisae strain that is designed for GPCR activity assays. The yeast is auxotrophic for histidine and expresses a HIS3 reporter gene under the control of the FUS1 promoter. Activation of a recombinant GPCR in this system increases expression of the HIS3 reporter via the yeast's endogenous pheromone response, which in turn allows the cells to grow in selective histidine-deficient medium. Thus receptor activity can be quantified based on measurements of yeast growth in the selective medium, using a fluorometric Alamar Blue assay. Cells transformed with either empty vector (mock control) or SmGPR-3 were initially tested with all different biogenic amines, each at 2×10^−4 M (Fig. 3A).
Yeast cells transformed with empty plasmid were used as a negative control (mock).

[6] = 50 µM, compared to untreated larvae
[7] = each amine at 2×10^−4 M, relative to no drug control
[8] = drug 100 µM in the presence of 100 µM DA
[9] = 500 µM, compared to untreated larvae
[10] = 100 µM, 3-day-old schistosomula, 5 min after drug addition

In the case of CC(CN1c2ccccc2Sc2ccccc21)N(C)C (stereo not shown) [promethazine], the IC50 [1] is reported as 28 µM, the “effect on motor activity of schistosomula” value (“effect on motor activity” below) [2, 6] is reported as “significant decrease in motor activity” and the “yeast growth in the presence of histidine (toxicity control)” value (from here on “yeast growth in the presence”) [3] is reported as “normal or nearly normal growth”. For the same molecule, the “inhibition of SmGPR-2” value [4] was “most potent inhibitors of SmGPR-2”.
With OCCN1CCN(CCC=C2c3ccccc3Sc3ccc(C(F)(F)F)cc32)CC1 [flupenthixol] the IC50 [1] was 3.9 µM, the “effect on motor activity” value [2, 6] was “significant decrease in motor activity” and the “yeast growth in the presence” value [3] was “normal or nearly normal growth”. For the same molecule, the “inhibition of SmGPR-2” value [4] was “most potent inhibitors of SmGPR-2”.
In the case of CN1CCN2c3ccccc3Cc3ccccc3C2C1 (stereo not shown) [mianserin], the “inhibition of SmGPR-3 activity” value [1] is reported as “≈ 70%”.
With NC[C@H](O)c1ccc(O)c(O)c1 [noradrenaline] the “SmGPR-3 activation by biogenic amine” value [5, 7] was “stimulated SmGPR-3 activity but not to the same extent as dopamine or epinine”.
In the case of CN1CCN(C2=Nc3cc(Cl)ccc3Nc3ccccc32)CC1 [clozapine], the “effect on SmGPR-3 activity” value [1, 8] is reported as “modest or no significant inhibition”.
With CN1CCC(=C2c3ccccc3C=Cc3ccccc32)CC1 [cyproheptadine] the “inhibition of SmGPR-3 activity” value [1] was “≈ 70%”.
In the case of CNCC(O)c1ccc(O)c(OC)c1 (stereo not shown) [metanephrine], the “increase in the frequency of body wall movements” value ([2]; 500 µM) is reported as “≈ 3 fold”, the “effect on motor activity” value [2, 9] is reported as “marked hyperactivation” and the “SmGPR-3 activation by biogenic amine” value [5, 7] is reported as “stimulated SmGPR-3 activity but not to the same extent as dopamine or epinine”.
For CNC[C@H](O)c1ccc(O)c(O)c1 [adrenaline], the “effect on motor activity” value [2, 9] was “decrease in motility” and the “SmGPR-3 activation by biogenic amine” value [5] was “stimulated SmGPR-3 activity but not to the same extent as dopamine or epinine”.
For O=C(CCCN1CCC(O)(c2ccc(Cl)cc2)CC1)c1ccc(F)cc1 [haloperidol], the “effect on motor activity” value [2, 9] was “no significant motor effects” and the “yeast growth in the presence” value [3] was “normal or nearly normal growth”.
With NCCc1ccc(O)c(O)c1 [dopamine] the “effect on motor activity” value [2, 6] was “decrease in motility”, the “effect on motor activity” value [2, 10] was “decreased both the amplitude and frequency of contractions” and the “concentration at which significant inhibition of motility was observed” value [2] was ≥ 10 µM. The EC50 [5] was 31 µM and the “SmGPR-3 activation by biogenic amine” value [5, 7] was “selectively activated”.
For O=C(CCCN1CCC2(CC1)C(=O)NCN2c1ccccc1)c1ccc(F)cc1 [spiperone], the “enhancement of SmGPR-3 activity” value [1, 8] was ~2 fold.
For CNCCc1ccc(O)c(O)c1 [epinine], the “effect on motor activity” value [2, 6] was “decrease in motility”, the “effect on motor activity” value [2, 10] was “virtual paralysis” and the “concentration at which significant inhibition of motility was observed” value [2] was ≥ 10 µM. For the same molecule, the EC50 [5] was 28.5 µM and the “SmGPR-3 activation by biogenic amine” value [5, 7] was “selectively activated”.
In the case of CC(C)NCC(O)COc1cccc2ccccc12 (stereo not shown) [propranolol], the “effect on SmGPR-3 activity” value [1, 8] is reported as “no effect”.
